Results published in ChEMBL document CHEMBL4184134, “Daryamide Analogues from a Marine-Derived Streptomyces species” (J Nat Prod, 2017).
Active and inactive are the calls of the source.

Columns and labels:
[1] = system: NCI-H2122; test: Cytotoxicity against human NCI-H2122 cells assessed as reduction in cell viability at 1 nM to 50 uM incubated for 96 hrs by Cell-titer Glo reagent based assay; format: functional
[2] = system: Pseudomonas aeruginosa; test: Antimicrobial activity against Pseudomonas aeruginosa incubated for 24 hrs by paper disk method; format: functional, organism-based
[3] = system: HCC44; test: Cytotoxicity against human HCC44 cells assessed as reduction in cell viability at 1 nM to 50 uM incubated for 96 hrs by Cell-titer Glo reagent based assay; format: functional
[4] = system: Bacillus subtilis; test: Antimicrobial activity against Bacillus subtilis at incubated for 24 hrs by paper disk method; format: functional, organism-based
[5] = species: Homo sapiens; test: Cytotoxicity against human HCC366 cells assessed as reduction in cell viability at 1 nM to 50 uM incubated for 96 hrs by Cell-titer Glo reagent based assay; format: functional
[6] = system: A549; test: Cytotoxicity against human A549 cells assessed as reduction in cell viability at 1 nM to 50 uM incubated for 96 hrs by Cell-titer Glo reagent based assay; format: functional

Measured: Activity

CCC/C=C/C=C/C(=O)NC1=C[C@@](O)(CCC(N)=O)[C@H]2O[C@H]2[C@@H]1O
inactive: [1] | [2] | [3] | [4] | [5] | [6]

CC(C)C/C=C/C=C/C(=O)NC1=C[C@@](O)(CCC(N)=O)[C@H]2O[C@H]2[C@@H]1O
inactive: [1] | [2] | [3] | [4] | [5] | [6]

CC(C)C/C=C/C=C/C(=O)N(CCO)c1cc(CCC(=O)O)c(O)cc1O
inactive: [1] | [2] | [3] | [4] | [5] | [6]

CC(C)/C=C/C=C/C(=O)NC1=C[C@@](O)(CCC(N)=O)[C@H]2O[C@H]2[C@@H]1O
inactive: [1] | [2] | [3] | [4] | [5] | [6]

CC(C)C/C=C/C=C/C(=O)N[C@H]1CCCNC1=O
inactive: [1] | [2] | [3] | [4] | [5] | [6]
